Activity calls are given as the source filed them. The calls are words filed in the database; no cut-off is given here.
Tests used:
[1] = biological target: T1, Protein deacetylase HDAC6 (Homo sapiens, UniProt Q9UBN7); test: Inhibition of recombinant HDAC6 (unknown origin) using Ac-peptide-AMC as substrate preincubated for 15 mins followed by substrate addition and measured after 60 mins by fluorescence assay
T1 sequence (Q9UBN7 whole entry): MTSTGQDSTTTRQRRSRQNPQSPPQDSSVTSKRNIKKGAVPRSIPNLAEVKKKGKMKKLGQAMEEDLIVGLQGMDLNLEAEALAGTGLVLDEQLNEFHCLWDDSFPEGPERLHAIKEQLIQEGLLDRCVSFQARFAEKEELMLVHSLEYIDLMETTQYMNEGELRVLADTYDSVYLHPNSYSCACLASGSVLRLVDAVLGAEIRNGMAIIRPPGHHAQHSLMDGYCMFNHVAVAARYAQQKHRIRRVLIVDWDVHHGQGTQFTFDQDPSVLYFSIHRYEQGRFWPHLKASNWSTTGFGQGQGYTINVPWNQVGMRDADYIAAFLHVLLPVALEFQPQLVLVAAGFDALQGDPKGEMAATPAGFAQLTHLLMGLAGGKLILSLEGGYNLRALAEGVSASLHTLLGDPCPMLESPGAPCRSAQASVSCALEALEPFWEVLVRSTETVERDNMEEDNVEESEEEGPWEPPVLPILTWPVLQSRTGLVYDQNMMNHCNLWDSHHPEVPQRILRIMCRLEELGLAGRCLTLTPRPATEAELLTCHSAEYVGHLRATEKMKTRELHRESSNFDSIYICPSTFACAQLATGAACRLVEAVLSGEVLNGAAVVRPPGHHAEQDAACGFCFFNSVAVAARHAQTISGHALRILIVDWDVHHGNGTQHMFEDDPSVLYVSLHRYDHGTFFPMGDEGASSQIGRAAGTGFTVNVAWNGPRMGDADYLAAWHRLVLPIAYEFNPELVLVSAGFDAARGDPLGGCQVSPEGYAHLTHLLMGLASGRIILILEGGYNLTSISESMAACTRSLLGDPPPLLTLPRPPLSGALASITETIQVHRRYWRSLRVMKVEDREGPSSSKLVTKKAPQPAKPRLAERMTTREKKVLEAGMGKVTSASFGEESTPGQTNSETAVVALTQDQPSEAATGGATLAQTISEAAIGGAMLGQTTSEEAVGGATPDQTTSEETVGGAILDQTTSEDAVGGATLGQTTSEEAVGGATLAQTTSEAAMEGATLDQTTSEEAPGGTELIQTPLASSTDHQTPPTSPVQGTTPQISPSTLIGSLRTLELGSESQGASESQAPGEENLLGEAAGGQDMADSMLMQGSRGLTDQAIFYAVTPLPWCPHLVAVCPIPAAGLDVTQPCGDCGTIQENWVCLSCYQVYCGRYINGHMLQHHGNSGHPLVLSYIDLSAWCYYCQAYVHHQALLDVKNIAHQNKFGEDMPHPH

[2] = system: MDA-MB-231; test: Antiproliferative activity against human MDA-MB-231 cells measured after 72 hrs by MTT assay; assay type: functional, cell-based; conditions: MDA-MB-231, 72 h
[3] = Cytotoxicity against human HL7702 cells measured after 72 hrs by MTT assay; conditions: HL7702 (L02) cells
[4] = Metabolic stability in rat liver microsomes assessed as parent compound remaining at 1 uM measured after 5 mins by LC-MS/MS analysis; assay type: ADME, Microsome; conditions: read-out: Stability
[5] = system: HepG2; test: Induction of apoptosis in human HepG2 cells assessed as increase in cleaved PARP expression at 1.25 to 20 uM measured after 48 hrs by Western blot analysis; assay type: functional, cell-based; conditions: dose 1.25-20 µM
[6] = system: HepG2; test: Induction of apoptosis in human HepG2 cells assessed as viable cells at 1.25 uM measured after 48 hrs by Annexin V-FITC/propidium iodide staining based flow cytometry (reference value: 88.58%); assay type: functional; conditions: read-out: Activity
[7] = system: HepG2; test: Induction of apoptosis in human HepG2 cells assessed as late apoptotic cells at 2.5 uM measured after 48 hrs by Annexin V-FITC/propidium iodide staining based flow cytometry (reference value: 4.55%); assay type: functional
[8] = system: HepG2; test: Induction of apoptosis in human HepG2 cells assessed as necrotic cells at 2.5 uM measured after 48 hrs by Annexin V-FITC/propidium iodide staining based flow cytometry (reference value: 0%); assay type: functional
[9] = system: HepG2; test: Induction of apoptosis in human HepG2 cells assessed as necrotic cells at 5 uM measured after 48 hrs by Annexin V-FITC/propidium iodide staining based flow cytometry (reference value: 0%); assay type: functional
[10] = system: HepG2; test: Induction of apoptosis in human HepG2 cells assessed as early apoptotic cells at 20 uM measured after 48 hrs by Annexin V-FITC/propidium iodide staining based flow cytometry (reference value: 6.87%); assay type: functional
[11] = system: HepG2; test: Induction of apoptosis in human HepG2 cells assessed as late apoptotic cells at 20 uM measured after 48 hrs by Annexin V-FITC/propidium iodide staining based flow cytometry (reference value: 4.55%); assay type: functional
[12] = system: HepG2; test: Induction of apoptosis in human HepG2 cells measured after 48 hrs by Annexin V-FITC/propidium iodide staining based flow cytometry; assay type: functional, cell-based; conditions: dose 1.25-25 µM, DDE = dose-dependent effect
[13] = system: HepG2; test: Cell cycle arrest in human HepG2 cells assessed as accumulation at S phase at 2.5 uM measured after 48 hrs by propidium iodide staining based flow cytometry (reference value: 32.39%); assay type: functional
[14] = system: HepG2; test: Cell cycle arrest in human HepG2 cells assessed as increase in p21 expression measured after 24 hrs by Western blot analysis; assay type: functional, cell-based; conditions: dose 1.25-20 µM, DDE = dose-dependent effect
[15] = system: HepG2; test: Inhibition of colony formation in human HepG2 cells measured after 24 hrs; assay type: functional, cell-based; conditions: dose 1.25-20 µM, DDE = dose-dependent effect
[16] = Metabolic stability in rat liver microsomes assessed as parent compound remaining at 1 uM measured after 15 mins by LC-MS/MS analysis; assay type: ADME, Microsome; conditions: read-out: Stability

IC50 [1]: 0.013 µM
IC50 [2]: 9.3 µM
remaining at 5 min, 1 µM [4]: 81.1%
remaining at 0.25 h, 1 µM [16]: 50.2%
Compound: COc1cc2nc(N3CCN(CCCCCC(=O)NO)CC3)nc(NC3CCN(Cc4ccccc4)CC3)c2cc1OC
IC50 at 72 h [3]: 39.8 µM
Activity [5]: Active
viability at 1.25 µM [6]: 88.5%
Activity [7]: 2.27%
Activity [8]: 0%
Activity [9]: 0%
Activity [10]: 49.75%
Activity [11]: 17.12%
Activity [12]: Dde
Activity [13]: 28.84%
Activity [14]: Dde
inhibition [15]: Dde

Source: ChEMBL document CHEMBL5143537, “Quinazoline-based hydroxamic acid derivatives as dual histone methylation and deacetylation inhibitors for potential anticancer agents” (Bioorg Med Chem, 2022)
